Experimental data as given in US20160340656A1, “PEPTIDES DERIVED FROM GSE 24.2 FOR TREATING DISEASES CAUSED BY OXIDATIVE STRESS AND DAMAGE TO DNA” (CONSEJO SUPERIOR DE INVESTIGACIONES CIENTÍFICAS (CSIC), priority 2013, published 2016).

Tests used:
Assay type in all cases: cell-based, human
[1] = system: AT2078 cells of patients with ataxia telangiectasia; assay: Damage to DNA in AT2078 cells: histone H2AX Ser139 foci after expression of GSE4 or SGSE4
Method: FIG. 14. Determination of damage to DNA in AT cells after transfecting peptides GSE4 and SGSE4: AT2078 AT cells were infected with a lentiviral vector expressing GSE4, SGSE4 or a GFP empty vector and 24 hours later were fixed for processing and hybridised with an antibody against phosphorylated histone H2AX (Ser139). Control C-1787 cells were used as the negative control. Next they were hybridised with a fluorescein-labelled antibody and were stained with DAPI to locate the nuclei.
As the peptide denominated GSE4 was the smallest sized of the peptides with ability to inhibit damage to DNA, we studied if another peptide with a similar sequence localised in the sequence of peptide GSE24.2 had the same activity or if that activity was specific to GSE4. Peptide SGSE4 (SEQ ID No. 15) is similar to GSE4 in sequence (amino acids LDPK/LDKP that constitute consensus sequences for pseudouridine synthases) and size and is found in the TRUBII domain of dyskerin. Cell lines AT2078 of patients with ataxia telangiectasia were used for this test. Cell line C-1787 was used as the control cell line. The cells were infected with the bicistronic lentiviral vector pCMV-GFP-GSE4, SGSE4 or GFP. After 48 hours of infection the cells were fixed with formaldehyde and then permeabilized by treating them with Triton X-100. The damage to DNA was estimated by studying the signal after hybridisation of the cells with an antibody against histone H2AX Ser139 and subsequent hybridisation with an antibody bound to fluorescein. The number of foci with stain for histone H2AX per nucleus was determined by confocal microscopy in a total of 200 cells and the data represented as a percentage of cells with a specific number of foci.

AT719 cells = assay: Viability (MTS) in response to bleomycin in AT cells; settings: increasing concentrations of bleomycin, 72 hours, versus AT736C control
Method: FIG. 5. Determination of the viability in response to bleomycin in AT cells: AT719-P AT cells were infected with a lentiviral vector expressing GSE24.2 or a GFP empty vector and three weeks later they were treated with different doses of bleomycin. AT736C cells were used as a control. The cells were fixed after 72 hours of treatment and viability determined with the MTS reagent. The values represent the result of the test performed in triplicate and express the viability with respect to untreated cells.
Mutations in gene ATM sensitise cells of AT patients to treatment with ionizing radiation or radiomimetic drugs such as bleomycin. In order to verify if the protective effect induced by GSE24.2 in cells of AT patients also extends to radiomimetic agents, AT719 patient cells expressing pCMV-GFP-GSE24.2 or an empty vector expressing only GFP (GFP) were treated with increasing concentrations of bleomycin for 72 hours. After this time, cell viability was evaluated using MTS reagent. AT736C cells were used as a control.

AT cells (AT3784) = assay: Damage to DNA in AT cells: pCHK2 Thr68 foci after lentiviral expression of GSE24.2
Method: FIG. 2. Determination of damage to DNA in AT cells: AT3784 AT cells were infected with a lentiviral vector expressing GSE24.2 or a GFP empty vector and were fixed 24 hours later to be processed and hybridised with an antibody against the kinase pCHK2[…]. Control C-1787 cells were used as the negative control. Next they were hybridised with a fluorescein-labelled antibody and were stained with DAPI to locate the nuclei. […] Therefore expression of GSE24.2 is able to correct damage to DNA in 28% of cells, confirming the data obtained with phosphorylated histone H2AX.

[2] = system: p38 MAP kinase (phosphorylated on Thr180/Try182) in AT719 cells; assay: Levels of phosphorylated p38 by Western blot in AT cells; settings: three weeks after infection, control AT736 = 1
From the text: FIG. 4. Determination of the levels of phosphorylation of p38 in AT cells: AT719-P AT cells were infected with a lentiviral vector expressing GSE24.2 or a GFP empty vector and three weeks later protein extracts were obtained. AT719-P AT cells infected with GSE24.2 were also used and the population with the maximum fluorescence was selected using a sorter (AT AT719-P GSE24.2 sorter). AT736C cells were used as a control. The proteins were resolved on polyacrylamide gels and transferred to nitrocellulose membranes. The membrane was hybridised with a polyclonal antibody against the protein p38 phosphorylated on Thr180/Try182 and non-phosphoryated protein as a loading control. The relative values between the phosphorylated and non-phosphorylated proteins obtained (using the NIH-Image program) for the control cell line were considered as 1 and the others referred to it.
One of the characteristics of AT patient cells is a higher activation of p38 MAP kinase due to the failure of function of the ATM protein. This increase in activation of p38 triggers the process of cell death in AT cells and therefore a reduction in the number of neuronal cells. […] The signal obtained in both hybridisations was quantified with the NIH-Image program and relative values between the phosphorylated and non-phosphorylated proteins obtained for the control cell line were considered as 1.

Sequence	overall correction of damage to DNA [1] [%]	AT cells in which overall damage to DNA is corrected ([1]; 200 cells) [%]	viability after bleomycin (AT719 cells)	cells in which damage to DNA is corrected (AT cells (AT3784)) [%]	fewer AT cells showing basal damage (AT cells (AT3784); after expressing GSE24.2) [%]	reduction of high levels of damage to DNA (AT cells (AT3784); after expressing GSE24.2) [%]	phosphorylated / non-phosphorylated p38 relative value [2]
GFINLDKPSNP [GSE4]	60	38	–	–	–	–	–
GFINLDKPSNPSSHEVVAWIRRILRVEKTGHSGTLDPKVTGCLIVCIERATRLVK (GSE24.2; listed as Homo sapiens) [55-amino-acid peptide corresponding to the protein dyskerin; known from WO2007/090911]	–	–	able to increase viability of AT719 cells to levels similar to control cells	28	25	13	reduced significantly to levels similar to control cells
